Laboratory results: US12427128B2, “Sensorineural hair cell differentiation” (Massachusetts Eye and Ear Infirmary, priority 2014, dated 2025)

Key:
[1] = system: Atoh1; assay: Atoh1 expression by quantitative RT-PCR in OC-1 cells; format: cell-based, mouse; conditions: OC-1 cells treated with HDAC inhibitors
Procedure: Atoh1 levels were measured in vitro in OC-1 cells or spheres by quantitative RT-PCR. For RT-PCR. total RNA was extracted from OC-1 cells or spheres treated with RAPT, FGF2, or DART and RNAi with the RiNeasy Maxi Kit (Qiagen) according to the manufacturer's instructions. RNA was denatured at 65° C. for 5 min. For reverse transcription, ImProm II (Promega) was used with random hexamers. Reverse transcription conditions were 25° C. for 5 min followed by 42° C. for 60 min. Reactions were terminated at 70° C. for 15 min. c: ANAs were mixed with Platinum quantitative PCR Supermix ROX with UDG (Invitrogen) and primers for Atoh1, Pax2 or Sox2 (ABI) according to the manufacturer's instructions. Gene expression was measured relative to 18S RNA. Samples were analyzed in 96 well plates in triplicate by quantitative PCR (Applied Biosystems 7900HT) using the following conditions: initial denaturation at 95° C. for 2 min, denaturation at 95° C. for 40 s and annealing/extension at 60′ C for 35 s for 45 cycles.
To address whether interaction with DNA-binding co-factors influenced bound histones at the Atoh1 locus, drugs that block histone modifications were used.

[2] = system: organ of Corti explants; assay: Hair cell number in organ of Corti explants from Atoh1-GFP mice; format: cell-based, mouse; conditions: for new hair cells in organ of Corti explants: P1-P2 explants, 48 h
Source text: In this example, modulation of Pax2 and Sox2 expression in the differentiating inner ear cells included reducing Sox2 expression levels while increasing Pax2 expression level. Sox2 expression was modulated using DAFT (Jeon et al., j. Neurosci., 31:8351-8358 (2011)). Pax2 expression was modulated using FGF2 (Adamska et al., Mech. Dev., 109:303-313 (2001); Mansukhani et al., J. Cell. Biol., 168:1065-1076 (2005)). DAPT was used to decrease Sox2 and FGF2 to activate Pax2 expression in inner ear stein cells (see FIG. 12A). 4th-5th generation spheres or OC explants (P1-P2) were plated in 4-well plates (Greiner) on round 10 mm glass coverslips coated with poly-L-lysine (Cultrex) and attachment took place overnight in 10% FBS/DMEM-high glucose (GIBCO). Attachment was ensured with microscopic inspection and the medium was changed to serum-free DMEM-high glucose/F12 (mixed 1:1, GIBCO) and N2 and B27 (Invitrogen). Spheres were differentiated for 3, 7 or 10 d. For treatment, either DAFT (2.5 μM) or FGF (20 ng/ml) or control medium containing only DMSO (0.1%) were applied for 7d on spheres and 48 h on OC explants. Cells were harvested and further analyzed by immunohistochemistry. Axiovision 4.3 was used for data acquisition and the number of cells was quantified with Metamorph software. Cell counts were expressed as mean±standard deviation. An average of 1,000 cells were counted for spheres or 100 μm for OC explants. Origin software was used for statistical evaluation. Cell detection techniques are described in the Examples above.
Samples were obtained and detected using methods described above. Organ of Corti explants (P1-P2) from Atoh1-GFP mice were contacted with DAPT, FGF2, or a combination of both for 48 h. Hair cell number was then assessed.

Compound | expression of Atoh1, qRT-PCR relative to 18S RNA [1] | new hair cells in organ of Corti explants [2] | numbers of hair cells ([2]; postnatal explants, DAPT with control siRNA)
CC(/C=C/C(=O)NO)=C\[C@@H](C)C(=O)c1ccc(N(C)C)cc1 [TSA, Trichostatin A] | increased expression of Atoh1 | – | –
C[C@H](NC(=O)Cc1cc(F)cc(F)c1)C(=O)N[C@H](C(=O)OC(C)(C)C)c1ccccc1 [DAPT] | – | additional outer hair cells were seen in the apex | Increased numbers of hair cells
CCCC(CCC)C(=O)O [VPA, valproic acid] | increased expression of Atoh1 | – | –
FGF2: growth factor used to activate Pax2 expression in inner ear stem cells; 20 ng/ml | – | additional outer hair cells were seen in the apex | –
